Reference: publication PMC10141076, “Steroids and Fatty Acid Esters from Cyperus sexangularis Leaf and Their Antioxidant, Anti-Inflammatory and Anti-Elastase Properties” (Molecules, 2023)
Where “and” joins values, the source holds several entries; their conditions need not be identical. Identical values can stand only once. Marks after values point to notes of the source that are not given here.

Experiments:
[1] = DPPH spectrophotometric assay (radical scavenging); details: mean ± SEM, n = 3; 30 min, 37 °C, 515 nm
Experimental: This was performed by following a previously reported conventional method, with some modifications. Here, 0.5 mL of 0.1Mm DPPH radical in methanol was added to 0.5 mL of serially diluted CS-isolated compounds and L-ascorbic acid at 100.00, 50.00, 25.00, 12.50 and 6.25 µg/mL concentration range in triplicate. The reaction mixture was incubated in the dark at 37 °C for 30 min. The absorbance was measured at 515 nm on a microplate reader. The percentage inhibition of the radical was calculated thus: % DPPH inhibition=(ABScontrol−ABSsample/ABScontrol)×100 where ABSsample = Absorbance of test sample, while ABScontrol = Absorbance of negative control (2% DMSO).

[2] = Nitric oxide (NO) inhibition assay (sodium nitroprusside/Griess); details: mean ± SEM, n = 3; 540 nm
Experimental: The inhibitory effect of the isolated compounds against the NO radical was investigated using the method described by Jimoh et al.. The compounds were prepared in varying concentrations from 100.00–6.25 µg/mL. They were added to 0.2 Mm (2 mL) of sodium nitroprusside in triplicates.

[3] = target: T1, porcine pancreatic elastase (PPE) (Sus scrofa, UniProt P00772); assay: Anti-elastase assay (release of p-nitroaniline from N-succinyl-ala-ala-ala-p-nitroanilide); type: biochemical; details: n = 3; text says elastase in HaCaT cells, method uses PPE; read-out: Anti-Elastase Activity (IC50 ± SD) (converted)
T1 construct: purchased Sigma
Experimental: All reagents, solvents, silica gel for TLC and silica gel for column chromatography were purchased from Sigma-Aldrich (Pty) Ltd. (Johannesburg, South Africa) and Merck (Pty) Ltd. (Johannesburg, South Africa) through a licenced local supplier, Shalom Laboratories and Supplies, South Africa. Antioxidant absorbance were measured on a 680-Bio-Rad Microplate Reader (Serial Number 14966, Irvine, CA, USA), while the anti-elastase activity was monitored on a Perkin Elmer VICTOR Nivo microplate reader ([…]). Isolated compounds were analyzed with a 600 MHz Bruker Biospin GmbH spectrometer (Bruker, Rheinstetten, Germany) and a 400 MHz VARIAN NMR spectrometer (Agilent Technologies Inc., Santa Clara, CA, USA). Chemical shift (δ) was recorded in part per million (ppm). The spectrum range was set at 0–14 ppm for 1H NMR, while that of ^13C NMR was set at 0–220 ppm. Tetramethyl silane was used as the internal standard and compounds were read in deuterated chloroform and benzene, as well as benzene-d6 in trifluorotoluene (TFT). High-resolution mass spectrometry (HRMS) was performed with a Waters API Q-TOF Ultima spectrometer (Waters Corporation, Manchester, UK) situated in Stellenbosch University, Stellenbosch, South Africa. […]
The ability of each isolated compound to inhibit porcine pancreatic elastase (PPE) (Sigma) was determined by measuring the release of p-nitroaniline from N-succinyl-ala-ala-ala-p-nitroanilide spectrophotometrically at 405nm according to the method of Bieth et al. and modified according to the method of Fibrich et al.. The reaction mixture contained 100mM Tris buffer (pH 8.0), 0.5M HCl; the test sample was serially diluted in DMSO to yield seven concentrations ([…]) to which PPE ([…]) was added and incubated for 15 min, followed by the addition of N-succinyl-ala-ala-ala-p-nitroanilide (4mM). The change in the absorbance of the reaction mixture was measured for 15 min, from which the rate was obtained. One unit of elastastolytic activity is defined as the release of 1 µM of p-nitroaniline/min. Ursolic acid was included as the positive drug control, as well as a vehicle control containing 2% DMSO and two negative controls (one in which no enzyme was added and the other in which no substrate was added). An IC50, or concentration at which 50% of the enzyme activity is inhibited was calculated using GraphPad Prism 4 (GraphPad Software, San Diego, CA, USA).

[4] = Ferric reducing antioxidant power (FRAP) assay; details: ascorbic acid equivalent; mean ± SEM, n = 3; 700 nm
Experimental: The reducing antioxidant capacity of each isolated compound was evaluated according to the method of Kumar and Pandey, with some modifications. The compounds were dissolved in 2% DMSO and added to the mixture containing 0.25 mL of phosphate buffer (0.2 M; pH 6.6) and 0.25 mL of potassium ferricyanide [K3Fe(CN)6] (1% w/v). Standard compounds used were L (+)-Ascorbic acid. The resulting mixture was incubated at 50 °C for 20 min, followed by the addition of 0.25 mL of CCl3COOH (10% w/v) and then centrifuged at 3000 rpm for 10 min. The upper layer of the solution was mixed with 1 mL of 2% DMSO and the same amount and 0.5 mL of FeCl3 (0.1%, w/v). The experiment was conducted in triplicate, and absorbance was measured at 700 nm on a microplate reader against a blank sample of only phosphate buffer. Thus, the ferric reducing power of the isolated compounds at 100.00, 50.00, 25.00, 12.50 and 6.25 µg/mL concentration in methanol were determined as ascorbic acid equivalent (AAE) from the calibration curve of the positive control (L-ascorbic acid).

[5] = system: egg albumin; assay: In vitro anti-inflammatory test: egg albumin denaturation (EAD) assay; type: biochemical, chicken
Experimental: The test was carried out using the egg albumin denaturation assay method reported by Chatterjee et al.. […] The mixture was incubated at 37 °C for 15 min away from direct light and thereafter boiled at 70 °C for 5 min in a thermostatic water bath. The resulting mixture was cooled, and the absorbance was measured at 655 nm on a microplate reader.

T1 sequence (P00772 27-266): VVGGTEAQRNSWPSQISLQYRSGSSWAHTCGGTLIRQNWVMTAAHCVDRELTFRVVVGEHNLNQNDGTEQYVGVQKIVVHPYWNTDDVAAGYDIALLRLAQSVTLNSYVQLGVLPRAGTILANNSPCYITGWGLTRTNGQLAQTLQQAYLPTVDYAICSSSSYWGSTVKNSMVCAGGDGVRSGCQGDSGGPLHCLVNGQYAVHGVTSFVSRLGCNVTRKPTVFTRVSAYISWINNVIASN

O=C1O[C@H]([C@@H](O)CO)C(O)=C1O [ASC, L-ascorbic acid, reference compound]
DPPH (IC50 ± SEM) [1]: 8.92 ± 1.26 ^a µg/mL | NO (IC50 ± SEM) [2]: 21.89 ± 1.32 ^a µg/mL

CC[C@H](C=C[C@@H](C)[C@H]1CC[C@H]2[C@@H]3CC=C4CC(O)CC[C@]4(C)[C@H]3CC[C@]12C)C(C)C (stereo partly shown) [Compound 1, stigmasta-5,22-dien-3-ol]
IC50 [3]: > 121 µM | FRAP [4]: 303.58 ± 10.33 µgAAE/mg and 303.58 ± 10.33 ^c µgAAE/mg | inhibition of egg albumin denaturation ([5]; at 6.25 µg/mL (lowest concentration)): 51.03 ± 10.36% | inhibition of egg albumin denaturation ([5]; at 6.25 µg/mL (lowest concentration), listed as stigmasterol): 50% | inhibition of egg albumin denaturation ([5]; at 25 µg/mL (median concentration)): up to 70% | DPPH (IC50 ± SEM) [1]: 38.18 ± 2.30 ^bc µg/mL | NO (IC50 ± SEM) [2]: 68.56 ± 4.03 ^bc µg/mL

C=CC(C)C1CCC2C1CCC1C3CCCCC3CCC12 (stereo not shown) [Compound 2, 17-(1-methyl-allyl)-hexadecahydro-cyclopenta[a] phenanthrene]
IC50 [3]: > 349 µM | FRAP [4]: 196.21 ± 13.79 ^a µgAAE/mg | inhibition of egg albumin denaturation, rank in words ([5]; across all concentrations (100–6.25 µg/mL), p < 0.05): least active among all the compounds tested | DPPH (IC50 ± SEM) [1]: 57.63 ± 1.62 ^e µg/mL | NO (IC50 ± SEM) [2]: 105.73 ± 7.48 ^d µg/mL

CC[C@H](CC[C@@H](C)[C@H]1CC[C@H]2[C@@H]3CC=C4C[C@@H](O)CC[C@]4(C)[C@H]3CC[C@]12C)C(C)C [Compound 3, β-sitosterol]
IC50 [3]: > 121 µM

CCCCCCCCCCCC(=O)O [Compound 4, dodecanoic acid]
IC50 [3]: > 250 µM | FRAP [4]: 245.94 ± 22.81 ^b µgAAE/mg | DPPH (IC50 ± SEM) [1]: 35.99 ± 2.13 ^b µg/mL | NO (IC50 ± SEM) [2]: 65.04 ± 3.20 ^b µg/mL

CCCCCCCCCCCCCCCCCCC(=O)OCC [Compound 5, ethyl nonadecanoate]
IC50 [3]: ≥ 153 µM | FRAP [4]: 243.40 ± 19.72 ^b µgAAE/mg | DPPH (IC50 ± SEM) [1]: 43.82 ± 1.44 ^c µg/mL | NO (IC50 ± SEM) [2]: 69.74 ± 3.06 ^bc µg/mL

CCCCCCCCCCCCCCCCCC(=O)OCC [Compound 6, ethyl stearate]
IC50 [3]: ≥ 160 µM | FRAP [4]: 190.92 ± 11.68 ^a µgAAE/mg | inhibition of egg albumin denaturation, rank in words ([5]; at concentrations above 6.25 µg/mL): least activity among the fatty acid compounds | DPPH (IC50 ± SEM) [1]: 49.86 ± 2.29 ^d µg/mL | NO (IC50 ± SEM) [2]: 95.99 ± 4.93 ^d µg/mL

C[C@H]1[C@H](C)CC[C@]2(C(=O)O)CC[C@]3(C)C(=CC[C@@H]4[C@@]5(C)CC[C@H](O)C(C)(C)[C@@H]5CC[C@]43C)[C@H]12 [Ursolic acid, ursolic acid, reference compound]
IC50 [3]: 54.3 µM

CCCCCCCCCCCCCCCCCCC(=O)OCC [ethyl nonadecanoate]
IC50 [3]: > 153 µM

CCCCCCCCCCCCCCCCCC(=O)OCC [ethyl stearate]
IC50 [3]: > 160 µM
